Measured values taken from the NIST ThermoML archive (doi:10.1016/j.jct.2013.09.005).
± gives the expanded uncertainty stated by the source.

Experiments:
[1] = 303.15 K, 101.33 kPa, Liquid; for viscosity: Capillary tube (Ostwald / Ubbelohde) method; for speed of sound: Linear variable-path acoustic interferometer; for mass density: Pycnometric method
[2] = xn = mol fraction of the nth substance listed; conditions: 303.15 K, 101 kPa, Liquid, x1 = 0.5; for viscosity: Capillary tube (Ostwald / Ubbelohde) method; for speed of sound: Frequency=2 MHz; for mass density: Pycnometric method

Compound	viscosity [1] [mPa·s]	speed of sound [1] [m/s]	mass density [1] [kg/m3]	viscosity [2] [mPa·s]	speed of sound ([2]; variable-path interferometer) [m/s]	mass density [2] [kg/m3]	speed of sound ([2]; Linear variable-path acoustic interferometer) [m/s]
CCOC(=O)c1ccccc1 [ethyl benzoate]	1.749 ± 0.17	1345.4 ± 2	1042 ± 4	–	–	–	–
CCCO [propan-1-ol]	1.61 ± 0.16	1189.2 ± 1.9	798 ± 4	–	–	–	–
CCOC(=O)c1ccccc1 [ethyl benzoate] + CCCO	–	–	–	1.679 ± 0.17	1261.4 ± 1.9	918.5 ± 4	–
CCCCCO [pentan-1-ol]	3.012 ± 0.3	1252.4 ± 1.9	810 ± 4	–	–	–	–

Results, then the molecule that gave them:

viscosity [1] [mPa·s]	speed of sound [1] [m/s]	mass density [1] [kg/m3]	viscosity [2] [mPa·s]	speed of sound ([2]; variable-path interferometer) [m/s]	mass density [2] [kg/m3]	speed of sound ([2]; Linear variable-path acoustic interferometer) [m/s]	Compound
1.67 ± 0.17	1399.4 ± 2	1077 ± 4	–	–	–	–	COC(=O)c1ccccc1 [methyl benzoate]
2.054 ± 0.21	1228.4 ± 1.9	804 ± 4	–	–	–	–	CCCCO [butan-1-ol]
–	–	–	1.634 ± 0.16	–	944.5 ± 4	1296.6 ± 1.9	COC(=O)c1ccccc1 [methyl benzoate] + CCCO
